Test results: paper PMC6643437, “MicroRNA Biogenesis is Enhanced by Liposome-Encapsulated Pin1 Inhibitor in Hepatocellular Carcinoma” (Theranostics, 2019)

Tests used:
[1] = In vivo safety study, single 100 mg/kg i.v. dose in BALB/c nude mice
Method: (§1) Safety of the liposomes in vivo was evaluated by blood biochemical analysis, H&E staining and Masson staining of tissues. Briefly, following i.v. administration of normal saline, LP, API-1 or API-LP in the BALB/c nude mice, the peripheral blood samples were collected using heparin and centrifuged for serum biochemical analysis. The tissue samples were simultaneously excised and fixed in 4% PFA. Blood ALT, AST, TBIL, ALB, UREA and total protein analyses were performed using BioAssay Systems blood chemistry assay kits following the manufacturer's instructions. The tissue samples were embedded in paraffin, then cut into 5 μm thick paraffin sections and subsequently placed on glass slide. The slides were stained with H&E. The histopathological alterations were observed and imaged with a light microscope (OLYMPUS BX43).

XPO5 = XPO5 subcellular distribution (confocal imaging, fractionation and Western blotting); format: cell-based, human; conditions: 1 μM, SK-Hep1
Method: SK-Hep1 cells cultured on glass coverslips after different treatments were fixed in 4% PFA for 20 min, permeabilized with 0.5% Triton X-100 for 10 min, blocked with 5% BSA, and then incubated with primary anti-XPO5 antibody at 4 °C overnight, followed by incubation with Alexa Fluor dye- conjugated secondary antibodies for 1 h. Then the nuclei were stained with DAPI for 5 min at room temperature before mounting in Immu-Mout (Thermo fisher). Confocal fluorescence images were captured using Leica TCS SP5 II confocal spectral microscope.
For total protein preparation, cells were lysed on ice for 20 min in the RIPA lysis buffer (Beyotime) with protease inhibitor cocktail (Bimake), followed by centrifugation at 12000 rpm for 10 min at 4 °C. The resultant proteins in the supernatants were stored at -80 °C or directly subjected to SDS-PAGE. For nuclear-cytoplasmic fractionation of proteins, RLN buffer (5 mM Tris-HCl pH 7.4, 1.5 mM MgCl2, 140 mM NaCl, 0.5% NP-40) was freshly prepared when used. SK-Hep1 cells were harvested and gently resuspended in 200 µL RLN buffer with protease inhibitor cocktail, followed by centrifugation at 300 g for 2 minutes at 4 °C, the resultant supernatants are the cytoplasmic proteins. […] The signals were detected using ECL reagents (Life Technologies).

SK-Hep1 cells = test: MTT cell viability assay; format: cell-based, human; conditions: 72 h
Method: MTT assay was conducted to estimate cell viability. Briefly, SK-Hep1 cells were seeded in a 96-well culture plate (2000 cells/well) and then treated with different concentrations of API-LP or free API-1 at 72 h in a 5% CO2 incubator for indicated time. At the end of incubation, 10 µL of MTT solution (5 mg/mL) was added into each well. After a 3 h incubation, DMSO (100 μL) was added to dissolve the resultant purple formazan crystals. The absorbance was measured at 570 nm on Thermo Scientific Varioskan Flash Multimode Reader.

SK-Hep1 tumors [2] = tested on: SK-Hep1 tumors; design: method as in PMID 29381806; conditions: free API-1, mice, ref [15]; cited from earlier work
[3] = Blood biochemistry and hepatic histopathology in tumor-bearing mice after multiple dosing; format: in vivo; conditions: 4 mg/kg i.v. once every two days
Method: as §1
In order to facilitate the judgment of the positivity and degree of hepatic injury of mice, an ace hepatic injury mice model was built by treating mice with tetracycline by gavage at dose of 500 mg/kg. Mice were fasted after oral tetracycline for 30 h and then were executed. The serum ALT, AST, TBIL and hepatic histopathological examinations were performed to evaluate liver injuries.
The experimental tissues were fixed with formalin and embedded in paraffin. Sections with 5 μm in thickness were prepared for H&E staining, Masson staining and immunostaining with anti-RIP3 antibody (Abcam). The images were acquired on an Olympus digital camera attached to a light microscope.

SK-Hep1 tumors [4] = test: SK-Hep1 xenograft in BALB/c nude mice; format: in vivo
Method: SK-Hep1 cells during the exponential-growth phase were collected and suspended in saline solution containing 50% Matrigel (Corning) at 5 × 10^7/mL. Then 100 μL of cells were injected into female BALB/c nude mice (5 weeks old) subcutaneously. Tumor growth was recorded every 3 days, and the tumor volume was calculated as ab^2/2 (a, long diameter; b, short diameter). All mice were randomized into 4 groups (8 mice per group) when the tumor volume reached 150-200 mm^3 and then were intravenously injected with normal saline, LP, free API-1 or API-LP at the 4 mg/kg dosage once every two days. At the end of the treatment, tumors were removed from mice and RNAs were extracted for miRNA detection.
Quantitative RT-PCR was used to assess miRNA expression levels. Total RNAs were extracted by TRIzol reagent (Invitrogen) from cells and transcribed by M-MLV reverse transcriptase (Invitrogen). Hairpin-it^TM real-time PCR miRNA kit for miR-122, let-7a, miR-29b and miR-146a were purchased from Shanghai GenePharma Co., Ltd (China). The miRNA levels were determined by Applied Biosystems StepOne Plus Real-Time PCR Systems using SYBR green master mix (Thermo fisher). Small endogenous nucleolar U6 RNA was used as internal control for miRNA normalization.

[5] = In vitro drug release by dialysis at pH 7.4; format: physicochemical; conditions: PBS pH 7.4 with 0.5% Tween-80, 37 °C
Method: In vitro release of API-1 from API-LP was investigated in a simulated blood pH environment (pH 7.4). Briefly, 1 mL API-LP diluted ten times in advance was used to determine the initial API-1 concentration, and the remaining 9 mL was dialyzed in a dialysis bag (3500 Da) in 50 mL PBS (pH 7.4) containing 0.5% Tween-80. The experiment was performed in triplicate at 37°C with shaking at 100 rpm for one week. Samples were withdrawn at prescheduled sampling time points and replaced with the same volume of release buffer each time. The samples were quantified by high performance liquid chromatography (HPLC).

[6] = Pharmacokinetic study in BALB/c mice; format: in vivo; conditions: 10 mg/kg i.v.
Method: The pharmacokinetic performance of API-LP was assessed in BALB/c mice. Following overnight fasting, six mice were randomized into two groups and received i.v. injection of free API-1 in 1 × PBS (pH 7.4) with 5% DMSO and API-LP in 1 × PBS (pH 7.4), respectively, at 10 mg/kg dose. At the prescheduled sampling time points, 20 μL blood samples were collected through caudal vein bleeding into heparinized centrifuge tube, followed by the centrifugation to obtain plasma, which was then stored at -80 °C until determination of the drug concentration.
For API-1 quantitation, plasma samples were thawed to room temperature. API-1 was extracted using acetonitrile and quantified by HPLC with QTRAP 5500 tandem mass spectrometry (LC/MS/ MS) system. The pharmacokinetic parameters based on the measured concentrations were calculated using GraphPad Prism (GraphPad Software).

[7] = 4 mg/kg i.v. once every two days, SK-Hep1 xenograft

API-1
haematological or liver toxicity (blood biochemistry) [1]: neither free API-1 nor API-LP had haematological or liver toxicity
nucleus-to-cytoplasm export of XPO5 (XPO5): restored the export of XPO5 to cytoplasm
inhibition of SK-Hep1 cell proliferation (MTT) (SK-Hep1 cells): inhibited SK-Hep1 cell proliferation in a dose-dependent manner
efficacious dose to suppress HCC tumor growth in mice (SK-Hep1 tumors [2]): 5 mg/kg
ALT Mean [3]: 39.67 U/L
AST Mean [3]: 133.67 U/L
TBIL Mean [3]: 1.70 µmol/L
body weight (SK-Hep1 tumors [4]; [7]): did not impact body weight
tumor growth and tumor volume (SK-Hep1 tumors [4]; [7]): significantly suppressed tumor growth and reduced tumor volume
biogenesis of mature miRNAs in tumor tissues (SK-Hep1 tumors [4]; 4 mg/kg, SK-Hep1 tumor tissues, real-time PCR): significantly increased biogenesis of miR-122, let-7a, miR-29b and miR-146a
release in the first 12 h of dialysis [5]: 81.6%
API-1 plasma concentration at 24 h postdose [6]: 34.8 ng/mL
Clearance ([6]; n=3): 72.75 ± 3.93 mL/h
Half-life t1/2 ([6]; n=3): 6.31 ± 0.66 h
